Results as given in US9717681B2, “Formulations containing substituted imidazole derivatives” (R.P. Scherer Technologies, LLC, priority 2002, dated 2017).

Experiments:
[1] = Protocol B: fipamezole administered as buccal spray to healthy volunteers, pharmacokinetics and tolerability; type: in vivo, human; settings: for Cmax: human plasma
Procedure: Fipamezole was administered orally in solution in increasing doses (0.5, 1, 3, 9, 18, 30 and 60 mg) to healthy volunteers (Caucasian males, 18-35 years old, 60-90 kg body weight). Blood samples were taken at intervals for pharmacokinetic evaluation up to 24 hours after each dose. Concentrations of fipamezole in plasma were measured with HPLC-MS/MS. Safety and tolerability were evaluated by standard safety laboratory determinations, ECG recordings, blood pressure and heart rate measurements and by adverse event questioning. The pharmacokinetics were evaluated using the Topfit 2.0 pharmacokinetic program. Cmax and tmax were read from the concentration vs. time curves and the apparent elimination phase half lives from the semi-logarithmic terminal part of the curve. AUC values were calculated both for infinity and up to the last measurable data point. […] The protocol used was substantially as for protocol A, except administration was by buccal spray (0.75, 1.5, 3, 7.5, 15, 30, 60 and 90 mg single doses).

[2] = Pharmacokinetics of fast dispersing dosage form in dogs; type: in vivo, beagle dogs
Procedure: In this study fipamezole was administered orally as a fast dispersing tablet (formulation as for Example 3 above) (20 mg/kg) via the buccal cavity to pure bred beagle dogs (1 male and 1 female). Throughout the study (8 days, and 4 days pre-study) the subjects were monitored for viability, changes in behaviour, reaction to treatment and ill-health. In addition, body weight and food consumption were recorded. Blood was collected at 10, 20, 30 and 45 minutes and 1, 1.25, 1.5, 2, 2.5, 3, 4 and 8 hours after administration for plasma level analysis (LC/MS/MS method).

[3] = Protocol A: fipamezole administered orally in solution to healthy volunteers, pharmacokinetics, safety and tolerability; type: in vivo, human; settings: for Cmax / Tmax / AUC(0-t) / half-life: male, human, plasma; for Cmax: po, human plasma
Procedure: Fipamezole was administered orally in solution in increasing doses (0.5, 1, 3, 9, 18, 30 and 60 mg) to healthy volunteers (Caucasian males, 18-35 years old, 60-90 kg body weight). Blood samples were taken at intervals for pharmacokinetic evaluation up to 24 hours after each dose. Concentrations of fipamezole in plasma were measured with HPLC-MS/MS. Safety and tolerability were evaluated by standard safety laboratory determinations, ECG recordings, blood pressure and heart rate measurements and by adverse event questioning. The pharmacokinetics were evaluated using the Topfit 2.0 pharmacokinetic program. Cmax and tmax were read from the concentration vs. time curves and the apparent elimination phase half lives from the semi-logarithmic terminal part of the curve. AUC values were calculated both for infinity and up to the last measurable data point.

[4] = beagle dogs, fast dispersing tablet (formulation as Example 3), 20 mg/kg via buccal cavity

CCC1(c2c[nH]cn2)Cc2ccc(F)cc2C1.Cl (centres unmarked) [fipamezole, 4-(2-ethyl-5-fluoro-indan-2-yl)-1H-imidazole, hydrochloride salt]
Absorption from the buccal mucosa into systemic circulation [1]: rapidly absorbed in a dose-dependent manner
Relation between dose and Cmax and AUC0-inf values [1]: linear correlation
Tolerability ([1]; all doses 0.75-90 mg single doses): well tolerated
Tmax ([1]; dose 0.75 mg): 0.72 h
Tmax ([1]; dose 1.5 mg): 0.72 h
Tmax ([1]; dose 7.5 mg): 0.72 h
Tmax ([1]; dose 15 mg): 0.72 h
Tmax ([1]; dose 30 mg): 0.72 h
Cmax ([1]; dose 30 mg): 49.23 ng/mL
Adverse effects seen after administration ([1]; frequently seen after administration): buccal erythema and whitening
Cmax ([1]; male, dose 0.75 mg, read-out: Cmax): 1.53 ng/mL
Cmax ([1]; male, dose 1.5 mg, read-out: Cmax): 3.13 ng/mL
Cmax ([1]; male, dose 3 mg, read-out: Cmax): 4.76 ng/mL
Cmax ([1]; male, dose 7.5 mg, read-out: Cmax): 13 ng/mL
Cmax ([1]; male, dose 15 mg, read-out: Cmax): 25.9 ng/mL
Cmax ([1]; male, dose 60 mg, read-out: Cmax): 92.9 ng/mL
Cmax ([1]; male, dose 90 mg, read-out: Cmax): 172 ng/mL
AUC(0-t) ([1]; male, human, plasma, dose 0.75 mg): 4.6 ng·h/mL
half-life ([1]; male, human, plasma, dose 0.75 mg, read-out: t1/2 (converted)): 1.47 h
AUC(0-t) ([1]; male, human, plasma, dose 1.5 mg): 9.99 ng·h/mL
half-life ([1]; male, human, plasma, dose 1.5 mg, read-out: t1/2 (converted)): 1.65 h
AUC(0-t) ([1]; male, human, plasma, dose 3 mg): 15.4 ng·h/mL
half-life ([1]; male, human, plasma, dose 3 mg, read-out: t1/2 (converted)): 1.6 h
Tmax ([1]; male, human, plasma, dose 3 mg, read-out: tmax): 0.78 h
AUC(0-t) ([1]; male, human, plasma, dose 7.5 mg): 40.8 ng·h/mL
half-life ([1]; male, human, plasma, dose 7.5 mg, read-out: t1/2 (converted)): 1.78 h
AUC(0-t) ([1]; male, human, plasma, dose 15 mg): 84.1 ng·h/mL
half-life ([1]; male, human, plasma, dose 15 mg, read-out: t1/2 (converted)): 1.97 h
AUC(0-t) ([1]; male, human, plasma, dose 30 mg): 157 ng·h/mL
half-life ([1]; male, human, plasma, dose 30 mg, read-out: t1/2 (converted)): 2.12 h
AUC(0-t) ([1]; male, human, plasma, dose 60 mg): 231 ng·h/mL
half-life ([1]; male, human, plasma, dose 60 mg, read-out: t1/2 (converted)): 3 h
Tmax ([1]; male, human, plasma, dose 60 mg, read-out: tmax): 0.46 h
AUC(0-t) ([1]; male, human, plasma, dose 90 mg): 467 ng·h/mL
half-life ([1]; male, human, plasma, dose 90 mg, read-out: t1/2 (converted)): 3.16 h
Tmax ([1]; male, human, plasma, dose 90 mg, read-out: tmax): 0.53 h
half-life ([1]; male, human, plasma, range over doses, longer times at larger doses, read-out: Apparent elimination phase half life): 1.2 to 3.5 h
Absorption [2, 4]: rapidly absorbed
Time to peak plasma concentration [2, 4]: ≤ 10 min
Effect on body weight ([2]; beagle dogs, fast dispersing tablet, 20 mg/kg): no adverse effect
Food consumption on the day of administration ([2]; beagle dogs, fast dispersing tablet, 20 mg/kg, probably due to frequent blood collection): low
Adverse clinical signs ([2]; female beagle dog, fast dispersing tablet (formulation as Example 3), 20 mg/kg via buccal cavity): No adverse clinical signs
Adverse clinical signs ([2]; male beagle dog, fast dispersing tablet (formulation as Example 3), 20 mg/kg via buccal cavity): elevated pulse rate
Cmax ([3]; 0.5 mg): 0.05 ng/mL
Cmax ([3]; 1 mg): 0.08 ng/mL
Cmax ([3]; 3 mg): 0.23 ng/mL
Cmax ([3]; 9 mg): 1.09 ng/mL
Cmax ([3]; 18 mg): 1.31 ng/mL
Cmax ([3]; 60 mg): ~2 ng/mL
Tmax ([3]; oral solution, dose 0.5 mg): 0.88 h
AUC(0-t) ([3]; oral solution, dose 1 mg): 0.1 ng·h/mL
Tmax ([3]; oral solution, dose 1 mg): 0.83 h
AUC(0-t) ([3]; oral solution, dose 3 mg): 0.3 ng·h/mL
Tmax ([3]; oral solution, dose 3 mg): 0.67 h
AUC(0-t) ([3]; oral solution, dose 9 mg): 4.2 ng·h/mL
Tmax ([3]; oral solution, dose 9 mg): 0.67 h
half-life ([3]; oral solution, dose 9 mg): 2.2 h
AUC(0-t) ([3]; oral solution, dose 18 mg): 6 ng·h/mL
Tmax ([3]; oral solution, dose 18 mg): 0.83 h
half-life ([3]; oral solution, dose 18 mg): 2.4 h
AUC(0-t) ([3]; oral solution, dose 30 mg): 6.8 ng·h/mL
Tmax ([3]; oral solution, dose 30 mg): 1.25 h
half-life ([3]; oral solution, dose 30 mg): 3.1 h
AUC(0-t) ([3]; oral solution, dose 60 mg): 8.2 ng·h/mL
Tmax ([3]; oral solution, dose 60 mg): 1.06 h
half-life ([3]; oral solution, dose 60 mg): 1.8 h
Level of absorption vs dose ([3]; oral solution, 0.5-60 mg): not dose-proportional
Safety and tolerability ([3]; oral solution, 0.5-60 mg, healthy volunteers): safe and well tolerated
